# Data taken from the METLIN SMRT retention time set (Domingo-Almenara et al. 2019).
# Test: gradient 5% acetonitrile 3 min, to 50% in 2 min, to 85% in 15 min, held 3 min, 100 µL/min
# Details: column: Zorbax Extend-C18 2.1 x 50 mm; eluents: water / acetonitrile, 0.1% formic acid
# Method in brief: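 The system's dead and dwell volumes were 40 μL and 900 μL, with a Zorbax Extend-C18 column (2.1 × 50 mm, 1.8 μm) run at 100 μL/min in water and acetonitrile containing 0.1% formic acid each. Pure standards were analyzed in mixtures of ~100 molecules by HPLC–quadrupole time-of-flight mass spectrometry in positive and negative ionization mode. Retention time was assigned from computationally picked, manually inspected adduct peaks.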
row,SMILES,RP-LC retention time
1,Cc1ccc(S(=O)(=O)N2CCCC2CNC(=O)c2ccc(F)c(F)c2)cc1 (stereo not drawn),896 s
2,Cc1nnc2c(N3CCN(c4ccccn4)CC3)nc3ccc(C(=O)c4ccccc4)cc3n12,672 s
3,O=C(Nc1ccc2c(c1)OCCO2)N1CCC2(CC1)CC(OCc1ccccc1)CCO2 (stereo not drawn),914 s
4,O=C(NCCc1csc(C2CCCN(C(=O)C3CCC3)C2)n1)C1CC1 (stereo not drawn),691 s
5,O=S(=O)(c1ccc(F)cc1)N1CCC(OCCOCc2ccccc2)CC1,1060 s
6,O=c1ccc(-c2ccccc2)nn1Cc1nc(-c2ccc(Br)cc2)no1,1100 s
7,COc1ccc(OCc2ccc(C(=O)Nc3ccc4c(c3)OCO4)o2)cc1,879 s
8,CS(=O)(=O)N1CCC(C(=O)Nc2ccc(F)cc2)Oc2ccccc21 (stereo not drawn),817 s
9,Cc1ccc(C(=O)N2CCCCC2c2nncn2CC2CC2)cn1 (stereo not drawn),575 s
10,CC(=O)N1CCC(C(=O)Nc2ccsc2-c2nc(-c3ccccc3)no2)CC1,980 s
11,COc1ccccc1C(=O)N1CCCC1c1nc(-c2ccc(F)cc2F)no1 (stereo not drawn),1020 s
12,Cc1ccccc1C1CCCN1C(=O)c1ccnn1C (stereo not drawn),768 s
13,Cc1ccccc1-n1c(=O)c2sccc2n(Cc2nc(-c3ccc(OC(C)C)cc3)no2)c1=O,1120 s
14,CCn1cc(-c2ccc(C)cc2)cc1C(=O)O,898 s
15,COC(=O)C1=CN(c2ccc(OC)cc2)c2ccccc2S1(=O)=O,819 s
16,Cc1cccc(N2CCN(Cc3nc(-c4ccc(N5CCCCC5)nc4)no3)CC2)c1C,1160 s
17,COc1ccc(OC)c(S(=O)(=O)N2CCC([C@H]3[C@@H](OC)C(=O)N3C(C)C)CC2)c1,809 s
18,COCc1cc(=O)n(CC(=O)Nc2ccc(F)cc2)c(N)n1,585 s
19,CCN(CC)CCNC(=O)Cn1ncc2c3ccccc3n(C)c2c1=O,697 s
20,CCN1CCN(CC2CCN(S(=O)(=O)Cc3cccc(Cl)c3)CC2)CC1,618 s
21,CCOc1ccc(N2CC(c3nc(-c4cc(OC)c(OC)c(OC)c4)no3)CC2=O)cc1 (stereo not drawn),954 s
22,CCc1ccc(OCC(=O)Nc2cnn(CC)c(=O)c2N2CCCCC2)cc1,1240 s

row,SMILES,RP-LC retention time
1,O=C(C1=NN(Cc2ccc(F)cc2)c2ccc(Cl)cc2S1(=O)=O)N1CCOCC1,873 s
2,COc1cccc(-c2csc(Nc3cc(C)ccn3)n2)c1,810 s
3,COc1ccc(NC(=O)Cn2ncc3c(c2=O)N(CC2CC2)C(=O)CS3)cc1Cl,808 s
4,CCc1ccc(N2CC(c3noc(-c4ccc(-c5ccccc5)cc4)n3)CC2=O)cc1 (stereo not drawn),1340 s
5,CCOC(=O)Cc1csc(NC(=O)c2cc(=O)c(OCc3ccccc3)c[nH]2)n1,797 s
6,CC1CCCN(CCCNC(=O)C2CCN(S(=O)(=O)c3ccc4c(c3)sc(=O)n4C)CC2)C1 (stereo not drawn),612 s
7,Cc1cccc(NC(=O)C2CCN(C(=O)c3ncn4c3COC(c3ccccc3)C4)CC2)c1 (stereo not drawn),798 s
8,CN(Cc1ccco1)C(=O)C1CCN(S(=O)(=O)c2ccc3c(c2)sc(=O)n3C)CC1,803 s
9,COc1ccc2c(c1)CC(NC(=O)Nc1ccc(Br)cc1)CO2 (stereo not drawn),888 s
10,CCCNc1cc(N2CCCC(CCC(=O)NC(C)C)C2)ncn1 (stereo not drawn),616 s
11,CC(C)c1cc(N2CCN(c3ccccn3)CC2)n2ncc(-c3ccccc3)c2n1,670 s
12,CC(C)Cn1nc2ccc(S(=O)(=O)N3CCC(C)CC3)cn2c1=O,862 s
13,CCCCn1nc2c(S(=O)(=O)N3CCN(c4ccc(F)cc4)CC3)cccn2c1=O,951 s
14,COc1ccc(NC(=O)Nc2cccn3c(C4CCC4)nnc23)cc1OC,718 s
15,COc1ccc(-c2nc(C3CC(=O)N(c4ccc(OC)c(OC)c4)C3)no2)cc1 (stereo not drawn),1180 s
16,CCn1c(=O)c(C(=O)NCc2cccc(F)c2)nc2cccnc21,797 s
17,Cc1ccc(C2Cn3cnc(C(=O)N4CCC(C(=O)NCc5cccs5)CC4)c3CO2)cc1 (stereo not drawn),756 s
18,CCCS(=O)(=O)N1CCCC(Cn2c(C)nc3cccnc32)C1 (stereo not drawn),572 s
19,COc1ccc2[nH]cc(CCNC(=O)c3cc4n(n3)CCCN(Cc3ccc(F)cc3)C4=O)c2c1,852 s
20,CC1CCN(c2cc(-c3noc(C(=O)NCc4ccco4)n3)ccn2)CC1,808 s
21,COc1ccc(N2CCN(c3ncccc3-c3nc(-c4ccc(Cl)cc4)no3)CC2)cc1,1230 s
22,CCC(=O)N1CCc2c(C(=O)O)cccc21,657 s

row,SMILES,RP-LC retention time
1,Cc1ccc(NC(=O)C2CCCN(S(=O)(=O)c3c[nH]c(C(=O)N4CCCCCC4)c3)C2)cc1F (stereo not drawn),652 s
2,CCn1c(=O)c(N2CCCC(C(=O)NCCc3c[nH]c4ccc(OC)cc34)C2)nc2ccccc21 (stereo not drawn),907 s
3,CC(NC(=O)C1CCN(c2ncnc3c2oc2ccccc23)CC1)c1ccccc1 (stereo not drawn),735 s
4,O=C(NCc1ccccn1)c1cc(-c2cccnc2)nc2ccc(Br)cc12,898 s
5,CCCN1C(=O)COc2ccc(-c3csc(NC(=O)c4ccc(Cl)cc4)n3)cc21,1140 s
6,CCc1ccccc1NC(=O)Cn1c(=O)n(-c2ccc(C)cc2)c(=O)c2c1cc(C)n2C,892 s
7,Cc1csc(-c2csc(S(=O)(=O)N3CCc4ccccc4C3)c2)n1,1110 s
8,CN1CCCc2cc(C(CNC(=O)C(=O)NCc3ccccc3)N3CCCC3)ccc21 (stereo not drawn),710 s
9,O=C(O)c1cccn2c(=O)c3cc(F)ccc3nc12,681 s
10,CCCCCNC(=O)CCc1nnc2c3cc(-c4ccc(C)c(C)c4)nn3ccn12,872 s
11,CCOC(=O)N1CCC(NC(=O)CCC2CCN(c3cc(NC4CC4)ncn3)CC2)CC1,619 s
12,COc1ccc(N2CCN(C(=O)CCc3nnc4c5cc(-c6ccccc6)nn5ccn34)CC2)cc1,730 s
13,COc1ccc(Cc2nnc(C3CCN(C(=O)c4ccc(=O)[nH]c4)CC3)s2)cc1,612 s
14,CCOc1ccc(NC(=O)N2C[C@@H](F)C[C@H]2C(=O)N2CCc3ccccc3C2)cc1,776 s
15,Cc1ccc(F)c(NS(=O)(=O)c2cn(C(C)C)c3ncccc23)c1,912 s
16,O=C(COc1ccccc1F)Nc1ccc(Cl)c(N2CCCS2(=O)=O)c1,791 s
17,Cn1cnnc1-c1nn(C)c2c1CN(C(=O)CCc1cc(Cl)no1)CC2,629 s
18,COC(=O)c1ccc(-c2nc3cnccn3c2Nc2cccc(OC)c2)cc1,846 s
19,O=C(c1cn2c(n1)COCC2)N1CCN(c2ccc(Cl)cc2)CC1,699 s
20,CC(C)(C)c1csc(-c2csc(S(=O)(=O)NCc3ccc(F)cc3)c2)n1,1220 s
21,CC(C)CCNC(=O)c1c2c(cn(-c3ccccc3)c1=O)C(=O)CC(C)(C)C2,1030 s
22,CCC(C)NC(=O)NC1CCN(C2=NS(=O)(=O)C(c3ccc(Cl)cc3)=C2C)CC1 (stereo not drawn),883 s

row,SMILES,RP-LC retention time
1,CCOC(=O)c1c[nH]c2ccc(NC(C)=O)cc2c1=O,557 s
2,CSc1ccccc1CN1CCC(CNC(=O)C(=O)NCC(F)(F)F)CC1,574 s
3,Cc1cc(N2CCN(c3ccccn3)CC2)n2ncc(-c3ccccc3Cl)c2n1,732 s
4,Cc1nc2cc(-c3noc(-c4sc(C)nc4C)n3)ccc2o1,951 s
5,Cc1ccnc(C(=O)Nc2ccc(Nc3cc(N4CCOCC4)nc(C)n3)cc2)n1,566 s
6,CCOc1ccc(NS(=O)(=O)c2cc(C(=O)Nc3ccc(F)cc3)n[nH]2)cc1,851 s
7,CCc1ccc(-n2ncc3c(=O)n(Cc4nc(-c5ccccc5)no4)cnc32)cc1,1160 s
8,Cc1cc(=O)n(CC(=O)Nc2ccc3c(c2)OCCO3)c(N2CCOCC2)n1,634 s
9,COc1ccc(OCc2nn3c(-c4ccoc4C)nnc3s2)cc1,900 s
10,Cn1cnc(S(=O)(=O)N2CC(Oc3ccccc3-c3nc(C4CC4)no3)C2)c1,794 s
11,NC(=O)c1cc(C(N)=O)nc(Cl)n1,604 s
12,COCCCNC(=O)C1CCN(S(=O)(=O)N(CC(C)C)CC(C)C)CC1,877 s
13,O=C(N[C@@H]1CN(C2CCOCC2)C[C@H]1CO)c1ccc2c(c1)OCO2,566 s
14,O=C(CN1C(=O)COc2ccccc21)N1CCN(c2ccc(-c3noc(C4CCC4)n3)cc2)CC1,1000 s
15,CCN1C(=O)c2cccnc2Sc2cc(NC(=O)c3ccc(Cl)s3)ccc21,932 s
16,O=C(NCCOc1ccc(-c2ccccn2)nn1)c1ccco1,555 s
17,CC(=O)N[C@@H]1CN(C(=O)c2ccc3c(c2)OCO3)C[C@H]1CO,571 s
18,Cc1oc(C)c(S(=O)(=O)NC2CC2)c1C(=O)NCc1ccc2c(c1)OCO2,830 s
19,CSc1cccc(NC(=O)C2CCCN(c3nnc(C)c4c(C)n(-c5ccccc5)nc34)C2)c1 (stereo not drawn),798 s
20,CCOc1ccc(CNC(=O)C2CCN(Cc3cn(CC)c4ccc(OC)cc34)CC2)cc1,723 s
21,O=C(Nc1cccc(Br)c1)C1CCCN(c2ncc(-c3ccc(F)cc3)cn2)C1 (stereo not drawn),1250 s
22,Cc1[nH]c(C(=O)N2CCC(CC(=O)NC(C)C)CC2)c(C)c1C(=O)OC(C)C,713 s
